According to paper PMC9016704, “Dichlorophenylpyridine-Based Molecules Inhibit Furin through an Induced-Fit Mechanism” (ACS Chemical Biology, 2022):
Read-outs that look alike come from different tables or passages of the source. Non-standard residues stand in square brackets, D forms with d. Residues, ends and D or L forms follow the SMILES beside them. *: point of attachment. AMC = Cc1cc(=O)oc2cc(N*)ccc12; pGlu = O=C1CC[C@@H](C(=O)O)N1

Legend:
[1] = system: furin; parameters: method as in earlier work; settings: cell-based inhibition assays; cited from earlier work
[2] = molecular target: T1, furin (Homo sapiens, UniProt P09958); experiment: MALDI-TOF-MS-based furin activity assay, TGFβ-derived substrate; format: biochemical; parameters: made in house
Target sequence in this assay (P09958 108-574 limits assumed): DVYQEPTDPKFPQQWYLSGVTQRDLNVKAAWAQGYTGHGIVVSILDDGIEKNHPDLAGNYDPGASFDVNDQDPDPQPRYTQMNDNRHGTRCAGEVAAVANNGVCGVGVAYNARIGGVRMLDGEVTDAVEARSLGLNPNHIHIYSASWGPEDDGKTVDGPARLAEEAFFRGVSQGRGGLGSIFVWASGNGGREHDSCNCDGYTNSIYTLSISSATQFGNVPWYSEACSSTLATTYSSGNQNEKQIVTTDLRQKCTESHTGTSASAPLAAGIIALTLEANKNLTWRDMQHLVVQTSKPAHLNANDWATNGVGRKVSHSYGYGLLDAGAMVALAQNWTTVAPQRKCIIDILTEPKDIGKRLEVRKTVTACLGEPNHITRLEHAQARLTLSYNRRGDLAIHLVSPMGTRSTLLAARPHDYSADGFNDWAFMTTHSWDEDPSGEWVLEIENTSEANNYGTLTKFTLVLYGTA

[3] = molecular target: T1, furin; experiment: biochemical
Target sequence in this assay (P09958 108-794): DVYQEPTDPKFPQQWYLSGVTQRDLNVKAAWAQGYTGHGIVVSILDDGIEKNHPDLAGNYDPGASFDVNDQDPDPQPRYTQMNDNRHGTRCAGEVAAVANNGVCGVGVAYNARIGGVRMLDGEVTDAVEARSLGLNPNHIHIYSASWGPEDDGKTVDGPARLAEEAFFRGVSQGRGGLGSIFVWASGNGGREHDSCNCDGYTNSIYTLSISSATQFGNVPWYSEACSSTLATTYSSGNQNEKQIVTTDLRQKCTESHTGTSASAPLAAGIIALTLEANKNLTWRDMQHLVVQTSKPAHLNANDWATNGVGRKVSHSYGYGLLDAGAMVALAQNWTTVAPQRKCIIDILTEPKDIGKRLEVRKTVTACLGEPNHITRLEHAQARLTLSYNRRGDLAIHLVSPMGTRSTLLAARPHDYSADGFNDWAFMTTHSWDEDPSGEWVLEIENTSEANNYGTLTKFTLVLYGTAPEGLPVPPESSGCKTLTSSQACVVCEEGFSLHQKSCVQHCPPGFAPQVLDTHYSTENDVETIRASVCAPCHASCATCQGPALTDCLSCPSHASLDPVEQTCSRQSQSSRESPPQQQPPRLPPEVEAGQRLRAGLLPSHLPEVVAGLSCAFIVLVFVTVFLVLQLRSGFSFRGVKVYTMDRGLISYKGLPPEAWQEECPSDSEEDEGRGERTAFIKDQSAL

[4] = system: Total TGFβ production in the lung; parameters: method as in earlier work; settings: cited from earlier work; for Total TGFβ production in the lung reduced by: 10 mg/kg of body weight; for bioavailability: bleomycin-induced lung fibrosis mouse model
[5] = system: furin; parameters: method as in earlier work; settings: enzyme kinetics measurements; cited from earlier work
[6] = molecular target: T1, furin; experiment: Protein thermostability measurement by nanoDSF; format: binding; parameters: made in house; settings: for Tm #1 / Tm #2 / Tm Mean: furin-inhibitor complex; for Tm #1: replicate #1; for Tm #2: replicate #2; for Tm Mean: ligand-free furin 57.7 ± 0.1; for ΔTm: gain versus ligand-free furin
From the text: Interactions of inhibitors with furin increased the structural stability of the protease–inhibitor complexes compared with the ligand-free protease, which was indicated by an increase in the melting temperature (Tm).[23] We investigated the impact of the (3,5-dichlorophenyl)pyridine-based compounds on the structural stability of furin using differential scanning fluorimetry (nanoDSF[24]). […] The gain in Tm correlated well with the measured pIC50 (i.e., −log10(IC50)) values (Figure 2B), as reported for substrate-like inhibitors.[10],[25] […]
Protein thermostability measurement by nanoDSF. The thermostablity of furin-inhibitor complexes was further assessed by nanoDSF.16 In nanoDSF, protein unfolding was monitored by the change of the intrinsic fluorescence of the protein, mainly from tryptophan and tyrosine residues in the protein. 10 ul 0.2 mg mL-1 (3.8 µM) protein solutions (10mM Hepes/NaOH pH 7.5; 100 mM NaCl; 2 mM CaCl2) were loaded into nanoDSF grade standard capillaries (NanoTemper Technologies). The samples were heated up with a ramp rate of 1 °C min-1 over a temperature range of 20-95 °C. The thermal unfolding profiles of the proteins were recorded using the Prometheus NT.48 instrument (NanoTemper Technologies). Measurements were performed in duplicate. Unfolding transition temperatures (Tm) were automatically determined by the instrument software.
Target sequence in this assay (P09958 108-574 limits assumed): as the sequence (P09958 108-574 limits assumed) above

[7] = molecular target: T1, furin; experiment: Surface plasmon resonance binding to immobilized furin; settings: for koff: read-out: koff Mean ± SD; for kon: read-out: kon Mean ± SD; for residence time: reciprocal of the mean koff, read-out: residence time τ
Protocol: As the (3,5-dichlorophenyl)pyridine derivatives bind tightly to furin, we used single-cycle kinetic experiments to determine their off-rates.[18] […]
SPR-experiments. 1, 3 and hexa-D-Arginine 14 were dissolved to a 10 mM stock solution in DMSO. This stock solution was initially diluted 100-fold in running buffer (10 mM HEPES pH 7.5, 100 mM NaCl, 2 mM CaCl2; 0.05% Tween; 1% DMSO) to a concentration of 100 µM and 1% DMSO. The stock solution in 1% DMSO was then further diluted in running buffer with […]
Furin was immobilized onto a NTA-chip after pre-loading with Ni2+ using standard procedures.
Immobilization levels of furin were in the range of 6000-6500 RU. Binding studies were performed with a Biacore T200 SPR system at 25°C in 10 mM HEPES pH 7.5, 100 mM NaCl, 2 mM CaCl2; 0.05% (v/v) Tween 20, and 1% (v/v) DMSO. Inhibitor 1 and 3 concentrations were […]
and 500 nM. Binding studies for 1 and 3 were performed in the single-cycle kinetic mode using […]
Target sequence in this assay (P09958 108-794): as the sequence (P09958 108-794) above

[8] = system: furin; parameters: method as in PMID 10958789; settings: read-out: IC50 (literature); cited from earlier work
[9] = molecular target: T1, furin; experiment: Enzyme kinetic assay with fluorogenic substrate pERTKR-AMC; format: biochemical; parameters: made in house
Protocol: To determine the inhibition mode for compound 1, we performed enzyme kinetic assays with the fluorogenic PC substrate pyr-ERTKR-7-amino-4-methylcoumarin (pERTKR-AMC).
Additionally, internal calibration was performed using the monoisotopic peak of the respective […]
MALDI-TOF data, processed with flexAnalysis or MALDI Pharma Pulse, were exported as a comma delimited (.csv) file. Datasets were further processed with either GraphPad Prism (v9.00; GraphPad Software, La Jolla, CA) or in-house laboratory information management system (LIMS) software. Furin activity was tracked by analyzing the measured intensity for the enzymatic product as well as for the corresponding internal standard. Average control values were calculated and set to 100% activity (high controls) and 0% activity (low controls) while the response values of compound-containing wells were normalized against the controls and expressed as percentage of control (PoC). Determination of compound potencies was obtained by fitting the dose-response data to a four-parameter logistical equation.
Enzyme kinetics. Enzyme kinetic measurements were performed in 100 mM HEPES pH 7.5, 1 mM CaCl2, 0.01% (w/v) BSA, 0.001% (v/v) Tween20 with the fluorogenic substrate pyr-ERTKR-7-amino-4-methylcoumarin (pERTKR-AMC, Bachem) and 0.5 nM furin at 24°C. The reactions (100 µl) were initiated by addition of the substrate in 96-well black half area plates (Corning), pre-incubated for 30 min at 24°C and measured for 40 min in a 96-well plate reader (Tecan Infinite 200) at excitation and emission wavelengths of 380 nm and 460 nm, respectively. The Km value of pERTKR-AMC with furin was determined with 1:2 serial dilution series of the substrate from 100 µM to 0.78 µM. To investigate the inhibition mode of 1 with furin, 1:2 serial inhibitor dilution series were prepared in the concentration range between 100 nM and 0.78 nM and the reaction velocity was determined in presence of 4.4 µM, 8.9 µM and 13.3 µM pERTKR-AMC. Enzyme kinetic data were evaluated with GraphPad Prism. Km was calculated with the prebuild “Michaelis-Menten” model. […]
Target sequence in this assay (P09958 108-574 limits assumed): as the sequence (P09958 108-574 limits assumed) above

[10] = TGFβ substrate, replicate #1, read-out: IC50 #1
[11] = TGFβ substrate, replicate #2, read-out: IC50 #2
[12] = TGFβ substrate, replicate #3, read-out: IC50 #3
[13] = TGFβ-derived substrate 2.5 µM, 0.02 nM furin, read-out: IC50 Mean ± SD
[14] = injected intraperitoneally, mice
[15] = 25°C, hexa-D-Arg: multicycle, poor curve fit, read-out: KD Mean ± SD

Compound | IC50 [2, 13] | IC50 [1] | bioavailability ([4]; in words) | IC50 [5] | Tm #1 [6] | Tm #2 [6] | Tm Mean [6] | ΔTm [6] | Kd [7, 15] | Kd ([7]; replicate #1, read-out: KD #1) | Kd ([7]; replicate #2, read-out: KD #2) | Kd ([7]; replicate #3, read-out: KD #3) | other results
CC(=O)NCC1CCN(Cc2cc(Oc3cnc(N4CCN(CCC(=O)O)CC4)nc3)nc(-c3cc(Cl)cc(Cl)c3)c2)CC1 [Inhibitor 3] | 1.8 nM | 10 nM | comparably high | 0.16 nM | 68.7 °C | 68.5 °C | 68.6 °C | 10.9 °C | 3.1 ± 1.6 nM | 2.76 nM | 5.07 nM | 1.31 nM | IC50 [2, 10]: 2 nM; IC50 [2, 11]: 2.3 nM; IC50 [2, 12]: 1.2 nM; IC50 ([3]; IC50 #1): 0.5 nM; IC50 ([3]; IC50 #2): 1 nM; IC50 ([3]; IC50 Mean): 0.8 nM; Total TGFβ production in the lung reduced by [4, 14]: 86%; koff ([7]; 25°C, single-cycle kinetic): 0.00031 s⁻¹; kon ([7]; 25°C, single-cycle kinetic): 96000 M⁻¹ s⁻¹; residence time [7]: 53.7 min
N=C(N)NCCC[C@@H](N)C(=O)N[C@H](CCCNC(=N)N)C(=O)N[C@H](CCCNC(=N)N)C(=O)N[C@H](CCCNC(=N)N)C(=O)N[C@H](CCCNC(=N)N)C(=O)N[C@H](CCCNC(=N)N)C(N)=O [hexa-D-arginine, reference compound] |  |  |  |  | 59.3 °C | 59.2 °C | 59.3 °C | 1.6 °C | 530 ± 320 nM | 437 nM | 966 nM | 200 nM | IC50 ([2]; IC50 #1, TGFβ substrate, replicate #1): 207 nM; IC50 ([2]; IC50 #2, TGFβ substrate, replicate #2): 64.2 nM; IC50 ([2]; IC50 #3, TGFβ substrate, replicate #3): 184 nM; IC50 ([2]; IC50 Mean ± SD, TGFβ-derived substrate 2.5 µM, 0.02 nM furin): 152 ± 77 nM; IC50 ([3]; IC50 Mean): 126 nM; koff Mean ± SD ([7]; 25°C, single-cycle kinetic): fast off-rate; IC50 [8]: 106 nM
Cc1cc(=O)oc2cc(NC(=O)[C@H](CCCNC(=N)N)NC(=O)[C@H](CCCCN)NC(=O)[C@@H](NC(=O)[C@H](CCCNC(=N)N)NC(=O)[C@@H]3CCC(=O)N3)[C@@H](C)O)ccc12 [pERTKR-AMC, pyr-ERTKR-7-amino-4-methylcoumarin] ([pGlu]RTKR-{AMC}) |  |  |  |  |  |  |  |  |  |  |  |  | Km ([9]; Km of substrate pERTKR-AMC with furin): 9.6 µM
AQHLQSSRHRRALDTNY [TGFβ, peptide substrate surrogate derived from TGFβ] |  |  |  |  |  |  |  |  |  |  |  |  | Km ([2]; assay-specific apparent Km of the TGFβ-derived peptide substrate, read-out: Km,app): 1800 nM
COCCN1CCN(c2ccc(Oc3cc(CN4CCC(CNC(C)=O)CC4)cc(-c4cc(Cl)cc(Cl)c4)n3)cn2)CC1 [Inhibitor 1] | 2.3 nM | 0.8 nM |  | 1.3 nM | 68.5 °C | 68.4 °C | 68.4 °C | 10.8 °C | 28 ± 13 nM | 48.7 nM | 24.7 nM | 26.1 nM | inhibition mode ([9]; Dixon plot, pERTKR-AMC 4.4-13.3 μM): competitive; Ki ([9]; competitive model, pERTKR-AMC 4.4, 8.9 and 13.3 µM, 0.5 nM furin): 3.8 ± 0.8 nM; IC50 [2, 10]: 2.6 nM; IC50 [2, 11]: 2.4 nM; IC50 [2, 12]: 2 nM; IC50 ([3]; IC50 #1): 1 nM; IC50 ([3]; IC50 #2): 1.1 nM; koff ([7]; 25°C, single-cycle kinetic): 0.00018 s⁻¹; kon ([7]; 25°C, single-cycle kinetic): 4600 ± 2500 M⁻¹ s⁻¹; residence time [7]: 92 min; kon #1 ([7]; replicate #1): 4531 [Ms]-1; kon #2 ([7]; replicate #2): 3563 [Ms]-1; kon #3 ([7]; replicate #3): 8463 [Ms]-1

Further lines, with some results ahead:

IC50 [2, 13] | Compound | IC50 [1] | bioavailability ([4]; in words) | IC50 [5] | Tm #1 [6] | Tm #2 [6] | Tm Mean [6] | ΔTm [6] | Kd [7, 15] | Kd ([7]; replicate #1, read-out: KD #1) | Kd ([7]; replicate #2, read-out: KD #2) | Kd ([7]; replicate #3, read-out: KD #3) | other results
1.3 nM | CC(=O)NCC1CCN(Cc2cc(Oc3cnc(N4CCN(CCC(C)C(=O)O)CC4)nc3)nc(-c3cc(Cl)cc(Cl)c3)c2)CC1 (centres unmarked) [Inhibitor 2] | 5 nM | comparably high | 0.5 nM | 69.4 °C | 69.2 °C | 69.3 °C | 11.6 °C |  |  |  |  | Total TGFβ production in the lung reduced by ([4]; oral, mice): 75%; oral availability ([4]; mice, in words): orally available
2.6 nM | CC(=O)NCC1CCN(Cc2cc(Oc3ccc(N4CCN(CCC(=O)O)CC4)nc3)nc(-c3cc(Cl)cc(Cl)c3)c2)CC1 [Inhibitor 4] | 25.1 nM | comparably high | 0.25 nM | 68.3 °C | 68.2 °C | 68.3 °C | 10.5 °C |  |  |  |  | Total TGFβ production in the lung reduced by [4, 14]: 69%
78 nM | CN1CCN(c2ncc(Oc3cc(CN4CCC(OCC(=O)O)C4)cc(-c4cc(Cl)cc(Cl)c4)n3)cn2)CC1 (centres unmarked) [Inhibitor 5] | 630 nM |  | 13 nM | 61.8 °C | 61.8 °C | 61.8 °C | 4.0 °C |  |  |  |  | 
